Results published in paper PMC9794833, “Ligand recognition and activation of neuromedin U receptor 2” (Nature Communications, 2022).
Values joined by “and” are separate entries in the source; they are usually repeats but may differ in a detail not shown here. Equal entries are not always repeated. Where two headings read alike, the source gives them in different places. Where no end group is shown, it is not given here.

Assays:
Format in all cases: cell-based
NMU2 F291A = molecular target: T1, NMU2 F291A (Homo sapiens, UniProt Q9GZQ4, F291A); test: TRUPATH assay, NMU2 mutant F291A
T1 construct: HA signal peptide (N); expressed in transfected cells; host or cells: HEK 293F
T1 sequence (Q9GZQ4 whole entry F291A): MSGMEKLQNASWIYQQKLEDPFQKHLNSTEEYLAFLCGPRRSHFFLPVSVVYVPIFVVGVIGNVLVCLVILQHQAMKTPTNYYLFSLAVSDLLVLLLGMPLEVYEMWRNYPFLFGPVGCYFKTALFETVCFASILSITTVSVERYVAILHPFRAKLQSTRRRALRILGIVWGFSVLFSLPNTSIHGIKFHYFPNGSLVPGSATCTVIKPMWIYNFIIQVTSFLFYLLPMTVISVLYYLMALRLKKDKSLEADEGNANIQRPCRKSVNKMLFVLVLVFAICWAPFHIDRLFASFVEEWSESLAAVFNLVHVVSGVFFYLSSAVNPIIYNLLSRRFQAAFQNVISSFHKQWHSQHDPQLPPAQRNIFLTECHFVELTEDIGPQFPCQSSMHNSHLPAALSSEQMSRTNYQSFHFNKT
Method: (§1) The plasmids of Gαi1, Gβ3, and Gγ9 used for the TRUPATH assay were purchased from Addgene (TRUPATH Kit, #1000000163). NMU2 constructs of WT and mutants were constructed into a PTT5 vector (Invitrogen) with an N-terminal HA signal peptide followed by a Flag tag. HEK 293F cells were transiently transfected with WT or mutants of NMU2, Gαi1, Gβ3, and Gγ9 at an […] ratio of 4:1:1:1 with a total of 3500 ng plasmid DNA using a transfection reagent (PEI MAX 2000, Polysciences) and cultivated at 37 °C with 5 % CO2. Cells were collected after 48-h transfection. The expression level of the receptor was measured by incubating 10 μl cells with 15 μl TBS buffer supplemented with 4% bovine serum albumin, 20% (v/v) viability staining solution7-AAD (Invitrogen, Cat#00-6993-50), and ANTI-FLAG M2-FITC antibody (Sigma, F4049; 1:100 diluted by TBS) at 4 °C for 20 min. After incubation, 175 μl TBS buffer was added, and the fluorescence signal on the cell surface was detected by an FCM (flow cytometry) reader (Millipore). The cells were diluted with 1× HBSS (Hank’s balanced salt solution) balanced buffer supplemented with 25 mM HEPES, pH 7.4, and seeded onto the 96-well opaque cell culture plates (Beyotime) at a density of 18,000 cells per well by 60 μl. Freshly prepared 50 μM coelenterazine 400a (Nanolight Technologies) was added into the well by 10 μl. After a 5 min equilibration time in the darkness, plates were then read in a Synerg^TM H1 microplate reader (BioTek) with excitation at 395 nm and emission at 410 and 515 nm by serially three times. Then, 30 μl of 3.3× agonists were added into the wells with a gradient final concentration from 10^−4–10^−13 M. Plates were read immediately again by serially five times. Data were processed and analyzed following the method in the literature by using GraphPad Prism 8.0.

NMU2 F126A = molecular target: T2, NMU2 F126A (Homo sapiens, UniProt Q9GZQ4, F126A); test: TRUPATH assay, NMU2 mutant F126A
T2 construct: HA signal peptide (N); expressed in transfected cells; host or cells: HEK 293F
T2 sequence (Q9GZQ4 whole entry F126A): as the sequence (Q9GZQ4 whole entry F291A) above, with F126A, A291F counted along it
Method: as §1

[1] = molecular target: T3, NMU2 engineered construct (Homo sapiens, UniProt Q9GZQ4); test: TRUPATH assay, engineered NMU2 construct used for cryo-EM
T3 construct: HA signal peptide (N); Flag (N); PreScission protease site (C); twin-strep (C); expressed in transfected cells
T3 sequence (Q9GZQ4 1-355 limits assumed, change not shown): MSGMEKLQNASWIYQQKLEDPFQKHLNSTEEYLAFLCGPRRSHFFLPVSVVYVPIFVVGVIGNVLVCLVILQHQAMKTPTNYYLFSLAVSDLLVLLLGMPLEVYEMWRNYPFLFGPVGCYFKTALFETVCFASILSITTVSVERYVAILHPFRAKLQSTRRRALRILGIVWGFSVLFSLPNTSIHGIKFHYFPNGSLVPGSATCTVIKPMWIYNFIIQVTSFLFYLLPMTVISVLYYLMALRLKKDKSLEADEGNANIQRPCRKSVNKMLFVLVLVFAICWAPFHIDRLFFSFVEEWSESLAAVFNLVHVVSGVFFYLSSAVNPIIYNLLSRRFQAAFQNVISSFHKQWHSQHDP
Source text: To facilitate expression and purification of the NmU-25–NMU2–Gi1 complex, a hemagglutinin (HA) signal peptide followed by a flag tag was introduced at the N terminus of NMU2, while the flexible C-terminal residues of the receptor (Q356-T415) were replaced by a PreScission protease site followed by a twin-strep affinity tag (Supplementary Fig. 1a, b). […] Dominant-negative Gαi1 (DNGαi1) containing five mutations (S47C, G202T, G203A, E245A, and A326S) was used to improve the stability of the complex as these mutations lead to a preference for a nucleotide-free state, and prevent the dissociation of Gβγ from the heterotrimer[20],[21]. Over 8700 movies were collected, and the structure of the NmU-25–NMU2–Gi1 complex was determined by cryo-EM single-particle analysis at a global nominal resolution of 3.3 Å (Supplementary Fig. 2a–f, Supplementary Table 1). […]
The plasmids of Gαi1, Gβ3, and Gγ9 used for the TRUPATH assay were purchased from Addgene (TRUPATH Kit, #1000000163). […] The expression level of the receptor was measured by incubating 10 μl cells with 15 μl TBS buffer supplemented with 4% bovine serum albumin, 20% (v/v) viability staining solution7-AAD (Invitrogen, Cat#00-6993-50), and ANTI-FLAG M2-FITC antibody (Sigma, F4049; 1:100 diluted by TBS) at 4 °C for 20 min. […] Data were processed and analyzed following the method in the literature by using GraphPad Prism 8.0.

NMU2 F224A = molecular target: T4, NMU2 F224A (Homo sapiens, UniProt Q9GZQ4, F224A); test: IP accumulation assay, NMU2 mutant F224A; conditions: IP accumulation
T4 construct: HA signal peptide (N); expressed in transfected cells; host or cells: HEK 293F, transient transfection, PTT5 vector
T4 sequence (Q9GZQ4 whole entry F224A): as the sequence (Q9GZQ4 whole entry F291A) above, with F224A, A291F counted along it
Method: (§2) NMU2 constructs of WT and mutants were constructed into PTT5 vector (Invitrogen), as mentioned above. HEK 293F cells were transiently transfected with WT or mutants with total of 2000 ng plasmid DNA using transfection reagent (PEI MAX 2000, Polysciences) and cultivated at 37 °C with 5% CO2. Cells were collected after 48-h transfection. IP accumulation was tested by IP-One Gq assay kit (Cisbio Bioassays, 62IPAPEJ) following the instruction manual. In general, cells were resuspended with 1× HBSS buffer containing 20 mM LiCl (stimulation buffer) and seeded into the white 384-well microplates (Proxi Plate^TM-384 Plus, PerkinElmer) with a density of 20,000 per well. Cells were preincubated with 10^−5 M R-PSOP (provided by Boehringer Ingelheim company, Germany) and gradient concentration from 10^−4 to 10^−11 M of NMU-25 or gradient concentration 10^−4 to 10^−11 M of NMU-25 alone in stimulation buffer at 37 °C for 90 min. The cryptate-labeled anti-IP1 monoclonal antibody and d2-labeled IP1 were diluted with lysis & detection buffer (1:20) and added to each well by 3 μl, respectively. The plates were incubated at room temperature for 60 minutes and then read in a Synerg^TM H1 microplate reader (BioTek) with excitation at 330 nm and emission at 620 and 665 nm. The IP1 production was calculated by a standard dose–response curve and analyzed by GraphPad Prism 8.0.

NMU2 E127A = molecular target: T5, NMU2 E127A (Homo sapiens, UniProt Q9GZQ4, E127A); test: IP accumulation assay, NMU2 mutant E127A; conditions: IP accumulation
T5 construct: HA signal peptide (N); expressed in transfected cells; host or cells: HEK 293F
T5 sequence (Q9GZQ4 whole entry E127A): as the sequence (Q9GZQ4 whole entry F291A) above, with E127A, A291F counted along it
Method: as §2

NMU2 H43E = molecular target: T6, NMU2 H43E (Homo sapiens, UniProt Q9GZQ4, H43E); test: TRUPATH assay, NMU2 mutant H43E; conditions: H43E
T6 construct: HA signal peptide (N); expressed in transfected cells; host or cells: HEK 293F
T6 sequence (Q9GZQ4 whole entry H43E): as the sequence (Q9GZQ4 whole entry F291A) above, with H43E, A291F counted along it
Method: as §1

NMU2 F305A = molecular target: T7, NMU2 F305A (Homo sapiens, UniProt Q9GZQ4, F305A); test: TRUPATH assay, NMU2 mutant F305A
T7 construct: HA signal peptide (N); expressed in transfected cells; host or cells: HEK 293F
T7 sequence (Q9GZQ4 whole entry F305A): as the sequence (Q9GZQ4 whole entry F291A) above, with A291F, F305A counted along it
Method: as §1

NMU2 E102A = molecular target: T8, NMU2 E102A (Homo sapiens, UniProt Q9GZQ4, E102A); test: IP accumulation assay, NMU2 mutant E102A; conditions: IP accumulation
T8 construct: HA signal peptide (N); expressed in transfected cells; host or cells: HEK 293F
T8 sequence (Q9GZQ4 whole entry E102A): as the sequence (Q9GZQ4 whole entry F291A) above, with E102A, A291F counted along it
Method: as §2

[2] = read-out: pEC50 mean±SEM (converted)
[3] = read-out: pEC50±SEM, NmU-25 alone (converted)

FRVDEEFQSPFASQSRGYFLFRPRN-NH2 [NmU-25]
EC50 ratio EC50(mutant)/EC50(WT) (NMU2 F291A): 22
Span (window between Emax and minimal agonist response) (NMU2 F291A): 126±11 % of WT
G protein activation (TRUPATH), dose-response point (NMU2 F291A; Log [agonist] M -4): 101.173 and 139.066
G protein activation (TRUPATH), dose-response point (NMU2 F291A; Log [agonist] M -5): 80.701 and 107.283 and 106.417
span (NMU2 F291A; compared with wild-type, peer review file): 127%
ΔpEC50 (from WT) (NMU2 F291A; individual experiments): -0.7238 and -1.311 and -0.9879
EC50 (NMU2 F291A; read-out: EC50): 737 nM
EC50 (NMU2 F291A; [2]): 741 nM
EC50 ratio EC50(mutant)/EC50(WT) (NMU2 F126A): 18
Span (window between Emax and minimal agonist response) (NMU2 F126A): 27±10 % of WT
G protein activation (TRUPATH), dose-response point (NMU2 F126A; Log [agonist] M -4): 26.6728 and 20.7775
ΔpEC50 (from WT) (NMU2 F126A; individual experiments): -2.148 and -1.125 and -1.6853
EC50 (NMU2 F126A; read-out: EC50): 625 nM
EC50 (NMU2 F126A; [2]): 631 nM
G protein activation (TRUPATH), dose-response point ([1]; Log [agonist] M -5): 104.095 and 133.885 and 136.246
G protein activation (TRUPATH), dose-response point ([1]; Log [agonist] M -6): 76.3981 and 114.895 and 125.038
EC50 (NMU2 F224A; read-out: EC50, NmU-25 alone): 46 nM
EC50 (NMU2 F224A; [3]): 45.7 nM
EC50 (NMU2 E127A; read-out: EC50, NmU-25 alone): 2140 nM
EC50 (NMU2 E127A; [3]): 2140 nM
EC50 ratio EC50(mutant)/EC50(WT) (NMU2 H43E): 11
Span (window between Emax and minimal agonist response) (NMU2 H43E): 135±8 % of WT
G protein activation (TRUPATH), dose-response point (NMU2 H43E; Log [agonist] M -4): 115.78 and 106.024 and 146.553 and 103.896
G protein activation (TRUPATH), dose-response point (NMU2 H43E; Log [agonist] M -6): 81.3432 and 53.8154 and 89.1078 and 81.5652
ΔpEC50 (from WT) (NMU2 H43E; individual experiments): -0.8963 and -0.6313 and -0.3476 and -0.5879
EC50 (NMU2 H43E; read-out: EC50): 360 nM
EC50 (NMU2 H43E; [2]): 363 nM
EC50 ratio EC50(mutant)/EC50(WT) (NMU2 F305A): 77
Span (window between Emax and minimal agonist response) (NMU2 F305A): 95±11 % of WT
G protein activation (TRUPATH), dose-response point (NMU2 F305A; Log [agonist] M -4): 46.0579 and 58.1697 and 76.8594 and 61.8818
ΔpEC50 (from WT) (NMU2 F305A; individual experiments): -2.165 and -2.457 and -1.8628 and -2.734
Emax (NMU2 F305A; peer review file): 83%
potency reduction (NMU2 F305A; peer review file): 33 fold
EC50 (NMU2 F305A; read-out: EC50): 2600 nM
EC50 (NMU2 F305A; [2]): 2630 nM
EC50 (NMU2 E102A; read-out: EC50, NmU-25 alone): 1700 nM
EC50 (NMU2 E102A; [3]): 1700 nM
